# Read-outs that look alike come from different tables or passages of the source.
# Key:
# [1] = target: T1, Human BBOX (γ-butyrobetaine hydroxylase) (Homo sapiens, UniProt O75936); test: carnitine formation from gamma-butyrobetaine by UPLC/MS/MS; format: biochemical
# T1 construct: gene BBOX1; human recombinant enzyme
# T1 sequence (O75936 1-387): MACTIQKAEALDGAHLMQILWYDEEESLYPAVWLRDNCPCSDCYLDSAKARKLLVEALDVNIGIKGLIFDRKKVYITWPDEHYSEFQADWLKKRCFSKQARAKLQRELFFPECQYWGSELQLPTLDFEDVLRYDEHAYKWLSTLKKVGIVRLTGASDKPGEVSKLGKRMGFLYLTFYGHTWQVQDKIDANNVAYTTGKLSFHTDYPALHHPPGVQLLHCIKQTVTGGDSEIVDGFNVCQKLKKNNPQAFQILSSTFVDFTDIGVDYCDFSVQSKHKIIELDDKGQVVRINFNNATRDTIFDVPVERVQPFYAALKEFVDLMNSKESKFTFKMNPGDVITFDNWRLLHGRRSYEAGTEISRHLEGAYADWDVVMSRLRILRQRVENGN
# Text: carnitine formation from gamma-butyrobetaine by UPLC/MS/MS on Human BBOX (γ-butyrobetaine hydroxylase)
# [2] = target: T2, hOCTN2 (carnitine/organic cation transporter OCTN2, SLC22A5) (Homo sapiens, UniProt O76082); test: inhibition of L-carnitine uptake in hOCTN2-transfected cells; format: cell-based; details: 10 µM carnitine with (N-methyl-3H)-carnitine tracer, Na+ buffer pH 7.4, 37 °C
# T2 sequence (O76082 1-557): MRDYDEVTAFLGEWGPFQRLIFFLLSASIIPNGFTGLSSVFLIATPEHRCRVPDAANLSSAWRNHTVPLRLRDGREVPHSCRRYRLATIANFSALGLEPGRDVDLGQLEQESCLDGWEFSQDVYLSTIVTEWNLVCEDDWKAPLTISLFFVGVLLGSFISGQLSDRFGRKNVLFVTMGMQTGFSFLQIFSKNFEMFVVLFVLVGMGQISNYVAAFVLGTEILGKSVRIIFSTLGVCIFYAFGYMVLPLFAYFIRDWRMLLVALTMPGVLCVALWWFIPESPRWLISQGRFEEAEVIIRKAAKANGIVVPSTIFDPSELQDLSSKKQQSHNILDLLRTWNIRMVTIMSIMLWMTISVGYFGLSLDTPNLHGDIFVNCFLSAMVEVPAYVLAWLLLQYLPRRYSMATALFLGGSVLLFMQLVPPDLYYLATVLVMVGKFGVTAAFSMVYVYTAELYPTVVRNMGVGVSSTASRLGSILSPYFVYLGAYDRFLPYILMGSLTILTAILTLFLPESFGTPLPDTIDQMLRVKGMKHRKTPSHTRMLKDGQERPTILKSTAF
IC50 [1],"IC50 ([1]; 200 µM GBB, 3 mM 2-oxoglutarate, 0.25 mM ferrous ammonium sulfate, 10 mM ascorbate, pH 7.0, 37 °C, 15 min preincubation)",SMILES,carnitine uptake in presence of 50 μM compound [2]
97 ± 17 µM,,Cc1ccc(NC(=O)CCC[N+](C)(C)C)cc1C [4j],
78 ± 16 µM,,C[N+](C)(C)CCCC(=O)Nc1ccc([N+](=O)[O-])cc1 [4k],"significantly inhibited by TCL substrates, including 4i, 4j, and 4k"
,76 ± 13 µM,C[N+](C)(C)CCCC(=O)NCCCc1ccccc1 [4t],

# — PMC7583931 (International Journal of Molecular Sciences, 2020)
